14 molecules from patent US20230265098A1, “ALKYNE QUINAZOLINE DERIVATIVES AS INHIBITORS OF ERBB2” (EnLiven Therapeutics, Inc., priority 2020, published 2023) can be followed below.

Assay [1] addresses T1, phosphorylated EGFR (pEGFR) (Homo sapiens, UniProt P00533).
T1 construct: endogenous in cells; host or cells: A431
In words: Detection of phosphorylated EGFR (pEGFR) in EGF-stimulated A431 cells (AlphaLISA). The assay is classed as cell-based. The note with it: A431 cells (10% FBS), 4 hours with compound, then EGF 30 ng/mL for 10 minutes. The method, then: Enzyme-linked immunosorbent assays (ELISA) were performed to measure phosphorylated EGFR levels using A431 cells (10% FBS). A431 (1.0*10^4 cells/40 μl/well) cells were seeded in 384 well. Compounds were dissolved in DMSO, serially diluted in DMSO and then were added, mixed, and incubated for 4 hours at 37° C., 5% CO2. Following the 4-hours incubation, cells were stimulated for 10 minutes with EGF (Invitrogen, cat #PHG0311) at a final concentration of 30 ng/mL in the incubator. The media was aspirated and cells were lysed in 10 μL lysis buffer with protease and phosphatase inhibitors (PerkinElmer, cat #ALSU-PEGFR-A50K). The plates were placed on a shaker for 5 minutes and then incubated for 30 min at 4° C. for complete lysis. The lysate was transferred to an Optiplate (Perkin Elmer, cat #6007290).
Acceptor mix (PerkinElmer, cat #ALSU-PEGFR-A50K) was prepared just before use and 5 μL was dispensed to all the wells, followed by a 1.5-2 h incubation at room temperature in dark. The donor mix (PerkinElmer, cat #ALSU-PEGFR-A50K) was prepared under low light conditions prior to use and […] of donor mix was added to all the wells under subdued lighting or green filters. The plates were placed on a shaker for 5 min, sealed, and incubated overnight at room temperature in dark. Plates were read on the Envision (PerkinElmer) using standard AlphaLISA settings.
The percentage of inhibition on EGFR phosphorylation was calculated following equation: % Inhibition=100×(LumHC−LumSample)/(LumHC−LumLC). The low and high controls (LC/HC) are generated from lysate from wells with cells treated with DMSO or […] Staurosporine (BioAustralis, cat #BIA-S1086), […]. IC50 values were calculated by fitting the Curve using XLfit (v5.3.1.3), equation 201: Y=Bottom+(Top−Bottom)/(1+10^((LogIC50−X)*HillSlope)).

Assay [2] deals with T2, phosphorylated ERBB2 (pERBB2) (Homo sapiens, UniProt P04626).
T2 construct: endogenous in cells; host or cells: BT-474
T2 sequence (P04626 23-1255): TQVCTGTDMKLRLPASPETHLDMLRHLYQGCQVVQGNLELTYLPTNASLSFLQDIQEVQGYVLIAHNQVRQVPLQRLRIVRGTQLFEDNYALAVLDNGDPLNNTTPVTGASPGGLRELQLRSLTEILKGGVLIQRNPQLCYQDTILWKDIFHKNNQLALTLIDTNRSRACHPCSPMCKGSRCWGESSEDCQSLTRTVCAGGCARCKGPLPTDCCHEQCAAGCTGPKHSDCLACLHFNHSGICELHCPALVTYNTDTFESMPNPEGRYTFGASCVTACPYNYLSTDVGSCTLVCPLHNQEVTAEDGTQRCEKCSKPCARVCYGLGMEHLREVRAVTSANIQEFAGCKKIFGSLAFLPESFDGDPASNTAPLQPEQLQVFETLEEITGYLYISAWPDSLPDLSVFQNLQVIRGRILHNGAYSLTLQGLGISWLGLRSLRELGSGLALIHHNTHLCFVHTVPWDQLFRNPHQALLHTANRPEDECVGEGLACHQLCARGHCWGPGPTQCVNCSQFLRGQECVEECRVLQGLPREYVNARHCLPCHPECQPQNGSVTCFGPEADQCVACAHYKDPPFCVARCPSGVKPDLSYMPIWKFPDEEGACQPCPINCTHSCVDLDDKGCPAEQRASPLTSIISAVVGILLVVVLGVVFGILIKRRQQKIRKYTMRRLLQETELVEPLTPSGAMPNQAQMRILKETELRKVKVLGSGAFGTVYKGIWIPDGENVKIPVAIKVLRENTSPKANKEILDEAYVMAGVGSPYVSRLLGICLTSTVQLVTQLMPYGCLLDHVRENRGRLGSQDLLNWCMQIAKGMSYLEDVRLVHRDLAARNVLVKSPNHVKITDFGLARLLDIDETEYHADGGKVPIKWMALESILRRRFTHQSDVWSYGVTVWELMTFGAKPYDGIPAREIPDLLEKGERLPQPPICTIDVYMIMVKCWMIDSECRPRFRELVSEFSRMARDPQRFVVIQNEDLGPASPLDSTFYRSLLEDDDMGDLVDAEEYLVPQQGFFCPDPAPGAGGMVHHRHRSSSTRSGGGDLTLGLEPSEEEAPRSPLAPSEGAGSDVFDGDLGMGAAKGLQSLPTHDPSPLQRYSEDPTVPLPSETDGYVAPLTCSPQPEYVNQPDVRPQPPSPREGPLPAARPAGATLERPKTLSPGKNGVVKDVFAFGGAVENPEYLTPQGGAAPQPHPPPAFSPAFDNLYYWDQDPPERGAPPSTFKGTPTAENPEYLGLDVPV
In words: Detection of phosphorylated ERBB2 (pERBB2) by ELISA in BT-474 cells. It counts as cell-based. The note with it: four hours incubation with compound, OD 450 nm. Here is the method:
BT-474 cells were seeded into a 96-well at 2.0*10^4 cells/100 μl/well.
Compounds were dissolved and serially diluted in DMSO. The compounds were then were added, mixed, and incubated for four hours at 37° C., 5% CO2. Compounds were added using four-fold dilutions at final concentrations ranging from 10 μM to 0.01 nM.
Following the four hour incubation with compounds, cell lysates were prepared. Plates were centrifuged for 5 min at 3000 RPM, and supernatant was removed from each well. Cells were washed 3 times by resuspension in 150 μl PBS, followed by centrifugation and removal of the supernatant, as above. […] Cells were incubated with lysis buffer for 1 hour at 4° C., and then stored at −80° C.
Enzyme-linked immunosorbent assays (ELISA) were performed to measure phosphorylated ERBB2 levels. […] The next day, plates were washed with PBS+0.05% Tween20 (PBST). 150 μl of 5% BSA blocking solution was added for 1 hour at room temperature, with shaking. Plates were washed with PBST. Cell lysates were thawed and 100 μl of lysate was added to the ELISA plate. The plates were incubated for 2 hours at room temperature, with shaking. […] Plates were incubated for 1 hour at room temperature, with shaking. Plates were then washed with PBST, and 100 μl TMB substrate solution (R&D Systems, cat #DY999) was added. Plate were incubated in the dark for 20 minutes at room temperature. 50 μl of Stop solution (R&D Systems, cat #DY994) (50 μl) was added to each well and mixed.
Optical density at 450 nm was read on an EnSpire plate reader (Perkin Elmer). The remaining kinase activity by calculated using the following formula: % Relative activity=100×(A450sample−A450LC)/(A450HC−A450LC). The low and high control values (“LC” and “HC”) were generated from lysate from wells without cells or with cells treated with 0.1% DMSO, respectively.
(ELISA stands for enzyme-linked immunosorbent assay.)

For assay [3], the target named is T3, Ba/F3 ERBB2 A775_G776insYVMA (Homo sapiens, UniProt P04626, DUP772-775, cells depend on it).
T3 construct: Ba/F3 cell lines were engineered to express human ERBB2 or EGFR kinases, rendering the cells IL-3 independent
T3 sequence (P04626 with tags, fused parts or gaps DUP772-775): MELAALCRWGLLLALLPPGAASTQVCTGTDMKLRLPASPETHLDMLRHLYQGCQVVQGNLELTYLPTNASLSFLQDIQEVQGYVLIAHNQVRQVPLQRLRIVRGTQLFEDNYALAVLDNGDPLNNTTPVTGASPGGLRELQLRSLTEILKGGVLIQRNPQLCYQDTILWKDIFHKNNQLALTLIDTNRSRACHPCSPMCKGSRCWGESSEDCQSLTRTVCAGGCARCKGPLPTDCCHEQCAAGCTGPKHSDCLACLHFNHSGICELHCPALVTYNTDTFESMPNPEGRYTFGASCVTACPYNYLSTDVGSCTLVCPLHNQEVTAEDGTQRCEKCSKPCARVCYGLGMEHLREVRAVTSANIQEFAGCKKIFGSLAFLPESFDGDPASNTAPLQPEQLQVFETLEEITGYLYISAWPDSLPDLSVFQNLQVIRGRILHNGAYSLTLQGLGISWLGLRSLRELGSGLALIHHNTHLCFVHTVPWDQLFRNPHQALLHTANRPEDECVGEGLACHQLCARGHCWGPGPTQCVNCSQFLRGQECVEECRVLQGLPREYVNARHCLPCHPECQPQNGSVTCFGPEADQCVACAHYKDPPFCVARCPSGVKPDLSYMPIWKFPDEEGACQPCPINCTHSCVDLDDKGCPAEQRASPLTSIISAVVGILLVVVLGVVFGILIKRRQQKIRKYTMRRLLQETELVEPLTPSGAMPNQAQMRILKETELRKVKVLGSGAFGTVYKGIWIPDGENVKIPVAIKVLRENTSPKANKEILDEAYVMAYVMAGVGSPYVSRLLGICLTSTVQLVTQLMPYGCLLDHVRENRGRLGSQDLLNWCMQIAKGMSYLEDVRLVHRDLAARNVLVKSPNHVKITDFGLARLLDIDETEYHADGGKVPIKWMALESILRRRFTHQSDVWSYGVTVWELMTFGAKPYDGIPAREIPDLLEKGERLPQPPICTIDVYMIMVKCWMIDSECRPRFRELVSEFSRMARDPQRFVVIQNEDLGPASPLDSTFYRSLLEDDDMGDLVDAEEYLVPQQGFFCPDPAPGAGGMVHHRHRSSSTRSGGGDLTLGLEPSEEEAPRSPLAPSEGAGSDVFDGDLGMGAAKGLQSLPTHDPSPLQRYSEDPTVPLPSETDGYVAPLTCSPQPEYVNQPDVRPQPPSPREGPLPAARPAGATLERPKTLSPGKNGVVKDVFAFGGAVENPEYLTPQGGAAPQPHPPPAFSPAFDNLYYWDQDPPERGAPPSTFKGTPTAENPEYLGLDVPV
In words: Cell viability assay (CellTiter Glo). It counts as cell-based, mouse. The note with it: 72 hours; 300 cells per well, 384-well plates (Table B5); read-out: Cell Line: Ba/F3 ERBB2 A775 G776ins YVMA IC50. The method, then: Cells were treated with compounds, and cell viability was measured as a metric of kinase inhibition.
The Ba/F3 cell line is IL-3-dependent mouse cell line derived from the C3H mouse strain. Ba/F3 cell lines were engineered to express human ERBB2 or EGFR kinases, rendering the cells IL-3 independent. The lines were generated via retroviral transduction utilizing a Moloney murine leukemia virus (MMLV) promoter, and constructs are stably integrated into the cell genome.
Similarly, Ba/F3 cell lines engineered to express EGFR, ERBB2, or ERBB2 mutants were grown, harvested, counted and seeded at 3000 cells per well in 96-well plates for the data sets shown in Tables B3-B4, and seeded at 300 cells per well in 384-well plates for the data set shown in Table B5. A subset of wells contained media only (low control, “LC”).
Table B2 provides the growth media and number of cells seeded per well for the each cell line.
Compounds were dissolved in DMSO and serially diluted. Serially-diluted compound or a DMSO only control (high control, “HC”) was added to the plated cells in each well. […] The final proportion of DMSO never exceeded 0.1%.
Plates were placed in a 37° C., 5% CO2 incubator for 72 hours. Plates were then removed from the incubator and equilibrated for 15 minutes at room temperature. 40 IA of CellTiter Glo reagent (Promega) was added to measure the relative level of metabolically active cells by quantifying intracellular ATP concentrations. Plates were incubated for 30 minutes at room temperature, and luminescence was measured. Percent viability was normalized to a vehicle control only using the following formula: % viability=100×(LumSample−LumLC) (LumHC−LumLC). Graphical curves were fitted using a nonlinear regression model with a sigmoidal dose response.
Background: Cellular ATP, detected with luciferase, serves as a proxy for viable cell number.

T1 sequence (P00533 25-1210): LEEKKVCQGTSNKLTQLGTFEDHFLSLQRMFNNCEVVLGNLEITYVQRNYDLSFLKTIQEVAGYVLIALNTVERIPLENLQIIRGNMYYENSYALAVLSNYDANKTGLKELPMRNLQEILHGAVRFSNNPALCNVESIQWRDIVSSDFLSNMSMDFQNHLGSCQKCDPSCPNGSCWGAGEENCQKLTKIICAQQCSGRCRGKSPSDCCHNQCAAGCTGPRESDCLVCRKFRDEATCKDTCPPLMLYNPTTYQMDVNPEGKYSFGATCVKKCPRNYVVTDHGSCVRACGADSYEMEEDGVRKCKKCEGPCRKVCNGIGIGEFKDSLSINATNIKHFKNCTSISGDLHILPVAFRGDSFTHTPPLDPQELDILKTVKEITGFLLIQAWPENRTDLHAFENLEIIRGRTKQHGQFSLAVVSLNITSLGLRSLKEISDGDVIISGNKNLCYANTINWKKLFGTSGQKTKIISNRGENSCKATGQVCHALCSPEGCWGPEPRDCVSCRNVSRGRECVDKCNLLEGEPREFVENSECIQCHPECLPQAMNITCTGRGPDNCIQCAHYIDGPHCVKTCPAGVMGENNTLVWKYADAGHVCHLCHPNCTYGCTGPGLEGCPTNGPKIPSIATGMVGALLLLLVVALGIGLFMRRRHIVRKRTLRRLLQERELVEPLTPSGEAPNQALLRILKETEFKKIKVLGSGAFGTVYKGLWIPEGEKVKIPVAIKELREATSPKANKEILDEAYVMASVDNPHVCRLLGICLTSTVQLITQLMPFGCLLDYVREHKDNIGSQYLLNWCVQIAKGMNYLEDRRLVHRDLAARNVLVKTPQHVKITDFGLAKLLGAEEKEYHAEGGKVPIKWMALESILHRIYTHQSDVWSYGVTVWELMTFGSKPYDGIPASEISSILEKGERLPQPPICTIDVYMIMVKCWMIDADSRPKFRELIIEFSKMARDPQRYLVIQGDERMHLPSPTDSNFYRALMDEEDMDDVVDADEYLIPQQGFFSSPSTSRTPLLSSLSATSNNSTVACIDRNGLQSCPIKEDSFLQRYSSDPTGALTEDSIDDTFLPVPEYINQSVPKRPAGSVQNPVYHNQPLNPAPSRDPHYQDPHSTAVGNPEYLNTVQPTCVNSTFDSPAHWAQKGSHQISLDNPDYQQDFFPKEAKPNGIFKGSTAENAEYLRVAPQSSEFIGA

One may read the IC50 as the concentration at which inhibition is half-maximal. For the molecule `CC#CC(=O)Nc1cc2c(Nc3ccc(Oc4ccn5ncnc5c4)c(C)c3)ncnc2cc1OCCN1CCN(C)CC1` [Compound 203, N-{4-[(3-methyl-4-{[1,2,4]triazolo[1,5-a]pyridin-7-yloxy}phenyl)amino]-7-[2-(4-methylpiperazin-1-yl)ethoxy]quinazolin-6-yl}but-2-ynamide], the concentration for half-maximal inhibition (IC50) in assay [1] was 45.5 nM; in assay [2], 6.05 nM. Also, the GI50 in assay [3] stood at 5.11 nM.

As to `CC#CC(=O)Nc1cc2c(Nc3ccc(Oc4ccn5ncnc5c4)c(Cl)c3F)ncnc2cc1OCCN(C)C` [Compound 193, N-(4-((4-([1,2,4]triazolo[1,5-a]pyridin-7-yloxy)-3-chloro-2-fluorophenyl)amino)-7-(2-(dimethylamino)ethoxy)quinazolin-6-yl)but-2-ynamide], the IC50 is 658 nM in assay [1] and 13.8 nM in assay [2]. Further, the GI50 in assay [3] is 9.32 nM.

For `CC#CC(=O)Nc1ccc2ncnc(Nc3ccc(Oc4ccc5c(c4)ncn5C)c(C)c3)c2c1` [Compound 212, N-[4-({3-methyl-4-[(1-methyl-1,3-benzodiazol-5-yl)oxy]phenyl}amino)quinazolin-6-yl]but-2-ynamide], the half-inhibitory concentration (IC50) was found to be 377 nM in assay [1] and 52.3 nM in assay [2]. For the same molecule, the GI50 in assay [3] came to 9.41 nM.

On to `CC#CC(=O)Nc1cc2c(Nc3ccc(Oc4cnn(C)c(=O)c4)c(C)c3)ncnc2cc1OCCN(C)C` [Compound 201, N-{7-[2-(dimethylamino)ethoxy]-4-({3-methyl-4-[(1-methyl-6-oxopyridazin-4-yl)oxy]phenyl}amino)quinazolin-6-yl}but-2-ynamide], for which the IC50 is 1970 nM in assay [1] and 153 nM in assay [2]. Further, the GI50 in assay [3] is 346 nM.

`Cc1cc(Nc2ncnc3cc(OCCN(C)C)c(NC(=O)C#CC(C)(C)C)cc23)ccc1Oc1ccn2ncnc2c1` [Compound 191, N-{7-[2-(dimethylamino)ethoxy]-4-[(3-methyl-4-{[1,2,4]triazolo[1,5-a]pyridin-7-yloxy}phenyl)amino]quinazolin-6-yl}-4,4-dimethylpent-2-ynamide]: the half-inhibitory concentration (IC50) is greater than 10000 nM in assay [1] and 93.2 nM in assay [2]. Moreover, the GI50 in assay [3] worked out at 177 nM.

Regarding `CNCCOc1cc2ncnc(Nc3ccc(Oc4ccn5ncnc5c4)c(C)c3)c2cc1NC(=O)C#CC1CC1` [Compound 187, 3-cyclopropyl-N-{4-[(3-methyl-4-{[1,2,4]triazolo[1,5-a]pyridin-7-yloxy}phenyl)amino]-7-[2-(methylamino)ethoxy]quinazolin-6-yl}prop-2-ynamide], the 50% inhibitory concentration (IC50) in assay [1] was determined as 434 nM; in assay [2], 30.5 nM. In addition, in assay [3], the GI50 came out at 19.6 nM.

Turning to `Cc1cc(Nc2ncnc3ccc(NC(=O)C#CC4(C)CC4)cc23)ccc1Oc1ccn2ncnc2c1` [Compound 185, N-{4-[(3-methyl-4-{[1,2,4]triazolo[1,5-a]pyridin-7-yloxy}phenyl)amino]quinazolin-6-yl}-3-(1-methylcyclopropyl)prop-2-ynamide], the IC50 in assay [1] turned out to be 680 nM; in assay [2], 17.3 nM. Also, the GI50 in assay [3] stood at 5.11 nM.

For `CC#CC(=O)Nc1ccc2ncnc(Nc3cc(C)c(Oc4ccn5ncnc5c4)cc3F)c2c1F` [Compound 210, N-{5-fluoro-4-[(2-fluoro-5-methyl-4-{[1,2,4]triazolo[1,5-a]pyridin-7-yloxy}phenyl)amino]quinazolin-6-yl}but-2-ynamide], the values for the IC50 in assay [1] and in assay [2] were 1850 nM and 12.1 nM, respectively. Besides, the GI50 in assay [3] is 10.8 nM.

Consider `Cc1cc(Nc2ncnc3cc(OCCN(C)C)c(NC(=O)C#CC4(C)CC4)cc23)ccc1Oc1ccn2ncnc2c1` [Compound 190, N-{7-[2-(dimethylamino)ethoxy]-4-[(3-methyl-4-{[1,2,4]triazolo[1,5-a]pyridin-7-yloxy}phenyl)amino]quinazolin-6-yl}-3-(1-methylcyclopropyl)prop-2-ynamide], for which the half-inhibitory concentration (IC50) turned out to be 1220 nM in assay [1] and 24.9 nM in assay [2]. The GI50 in assay [3] stood at 34.5 nM.

Regarding `CC#CC(=O)Nc1cc2c(Nc3ccc(Oc4ccn5ncnc5c4)c(C)c3)ncnc2cc1OCCN1CCCC1` [Compound 192, N-{4-[(3-methyl-4-{[1,2,4]triazolo[1,5-a]pyridin-7-yloxy}phenyl)amino]-7-[2-(pyrrolidin-1-yl)ethoxy]quinazolin-6-yl}but-2-ynamide], the half-inhibitory concentration (IC50) amounted to 1350 nM in assay [1] and 9.51 nM in assay [2]. Moreover, the GI50 in assay [3] was 11 nM.

`CC#CC(=O)Nc1cc2c(Nc3ccc(Oc4ccn5ncnc5c4)c(Cl)c3)ncnc2cc1OCCN(C)C` [Compound 200, N-(4-((4-([1,2,4]triazolo[1,5-a]pyridin-7-yloxy)-3-chlorophenyl)amino)-7-(2-(dimethylamino)ethoxy)quinazolin-6-yl)but-2-ynamide]: the IC50 in assay [1] worked out at 69.6 nM; in assay [2], 3.7 nM. Further, the GI50 in assay [3] is 2.63 nM.

Take `CC#CC(=O)Nc1cc2c(Nc3ccc(Oc4ccn5ncnc5c4)c(C)c3)ncnc2cc1OCCNC` [Compound 194, N-{4-[(3-methyl-4-{[1,2,4]triazolo[1,5-a]pyridin-7-yloxy}phenyl)amino]-7-[2-(methylamino)ethoxy]quinazolin-6-yl}but-2-ynamide]: the IC50 was 804 nM in assay [1] and 18.2 nM in assay [2]. Moreover, the GI50 in assay [3] turned out to be 32 nM.

For `CC#CC(=O)Nc1cc2c(Nc3ccc(Cc4ccn5ncnc5c4)c(C)c3)ncnc2cc1OCCN(C)C` [Compound 196, N-(4-((4-([1,2,4]triazolo[1,5-a]pyridin-7-ylmethyl)-3-methylphenyl)amino)-7-(2-(dimethylamino)ethoxy)quinazolin-6-yl)but-2-ynamide], the 50% inhibitory concentration (IC50) in assay [1] stood at 943 nM; in assay [2], 8.36 nM. In addition, the GI50 in assay [3] was determined as 9.96 nM.

As for `CC#CC(=O)Nc1c(OCCCN(C)C)cc2ncnc(Nc3ccc(Cc4ccn5ncnc5c4)c(C)c3)c2c1F` [Compound 209, N-{7-[3-(dimethylamino)propoxy]-5-fluoro-4-[(3-methyl-4-{[1,2,4]triazolo[1,5-a]pyridin-7-ylmethyl}phenyl)amino]quinazolin-6-yl}but-2-ynamide], the concentration for half-maximal inhibition (IC50) was greater than 10000 nM in assay [1] and 1250 nM in assay [2]. The GI50 in assay [3] was greater than 500 nM.
